According to patent US20250121078A1, “PEPTIDE DRUG CONJUGATES AND THEIR USES” (priority 2023, published 2025):
Where two headings read alike, the source gives them in different places. Where a SMILES comes first, the peptide text is derived from it. [ ]: non-standard residue; d: D form. The star is where a group is joined. Paclitaxel(2'-O-succinyl) = CC(=O)O[C@H]1C(=O)[C@@]2(C)[C@H]([C@H](OC(=O)c3ccccc3)[C@]3(O)C[C@H](OC(=O)[C@H](OC(=O)CCC(=O)*)[C@@H](NC(=O)c4ccccc4)c4ccccc4)C(C)=C1C3(C)C)[C@]1(OC(C)=O)CO[C@@H]1C[C@@H]2O; Propanoyl(3-SS-DM1) = COc1cc2cc(c1Cl)N(C)C(=O)C[C@H](OC(=O)[C@H](C)N(C)C(=O)CCSSCCC(=O)*)[C@]1(C)O[C@H]1[C@H](C)[C@@H]1C[C@@](O)(NC(=O)O1)[C@H](OC)/C=C/C=C(\C)C2; d(hArg(Et2)) = CCN=C(NCC)NCCCC[C@@H](N)C(=O)O; hArg(Et2) = CCN=C(NCC)NCCCC[C@H](N)C(=O)O; dPhe(4-Cl) = N[C@H](Cc1ccc(Cl)cc1)C(=O)O; d2Nal = N[C@H](Cc1ccc2ccccc2c1)C(=O)O; dCit = NC(=O)NCCC[C@@H](N)C(=O)O; d3Pal = N[C@H](Cc1cccnc1)C(=O)O

Biological target: T1, LHRHR, also known as GnRHR (Homo sapiens, UniProt P30968)
T1 sequence (P30968 1-328): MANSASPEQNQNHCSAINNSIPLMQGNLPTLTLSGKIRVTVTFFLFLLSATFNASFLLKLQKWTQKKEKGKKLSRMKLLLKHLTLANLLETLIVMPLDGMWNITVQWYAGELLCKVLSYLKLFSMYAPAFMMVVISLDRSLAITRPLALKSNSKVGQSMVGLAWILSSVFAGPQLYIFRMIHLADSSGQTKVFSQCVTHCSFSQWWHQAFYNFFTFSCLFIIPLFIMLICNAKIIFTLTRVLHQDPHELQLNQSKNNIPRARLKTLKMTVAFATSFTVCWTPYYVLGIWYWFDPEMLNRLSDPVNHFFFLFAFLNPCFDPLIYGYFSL
Assay: Radioligand binding assay ([125I]-[D-Trp6]-LHRH displacement)
Protocol: An amount of 2 μg of a purified membrane with LHRHR, also known as GnRHR, was incubated with 0.18 nM [125I]-[D-Trp6]-LHRH and compounds of interest in the incubation buffer (50 mM HEPES, pH 7.4, 5 mM MgCl2, 1 mM CaCl2, and 0.2% BSA). The reaction mixtures were incubated for 1 h at 25° C. and then were transferred to a 96-well GF/B filter plate (Millipore Corp., Billerica, MA, USA), which were terminated by manifold filtration and washed with a wash buffer (50 mM HEPES, pH 7.4, and 100 mM NaCl) for six times. The radioactivity bound to the filter was measured by a Topcount® system (PerkinElmer Inc., Waltham, MA, USA). IC50 values were determined by the concentration of a compound required to inhibit 50% of the specific binding of [125I]-[D-Trp6]-LHRH and calculated by nonlinear regression (GraphPad Software, San Diego, CA, USA). The design of these drug conjugates is to actively targeting LHRH-receptor at tumor site and facilitate drug conjugate accumulation in situ. Therefore, selective and strong binding of the synthetic peptide ligand with the receptor is important to allow enrichment of these conjugates, followed by release of the drug payload in the tumor microenvironment.
Compounds of the invention have a binding as low as 0.17 nM.

[1] = purified membrane with LHRHR, 0.18 nM [125I]-[D-Trp6]-LHRH, 1 h at 25° C., read-out: Binding Assay

SMILES | IC50 [1] [nM] | IC50 [nM]
CC(=O)N[C@H](Cc1ccc2ccccc2c1)C(=O)N[C@H](Cc1ccc(Cl)cc1)C(=O)N[C@H](Cc1cccnc1)C(=O)N[C@@H](CO)C(=O)N[C@H](CCCCN)C(=O)N[C@H](CCCNC(N)=O)C(=O)N[C@@H](CC(C)C)C(=O)N[C@@H](CCCNC(=N)N)C(=O)N1CCC[C@H]1C(=O)N[C@H](C)C(N)=O [Compound 1] (Ac-[d2Nal][dPhe(4-Cl)][d3Pal]S[dK][dCit]LRP[dA]-NH2) | > 100 | 
CC(=O)N[C@H](Cc1ccc2ccccc2c1)C(=O)N[C@H](Cc1ccc(Cl)cc1)C(=O)N[C@H](Cc1cccnc1)C(=O)N[C@@H](CO)C(=O)N[C@@H](Cc1ccc(O)cc1)C(=O)N[C@H](CCCCN)C(=O)N[C@@H](CC(C)C)C(=O)N[C@@H](CCCNC(=N)N)C(=O)N1CCC[C@H]1C(=O)N[C@H](C)C(N)=O [Compound 2] (Ac-[d2Nal][dPhe(4-Cl)][d3Pal]SY[dK]LRP[dA]-NH2) | 0.1 to 1 | 
CC(=O)N[C@H](Cc1ccc2ccccc2c1)C(=O)N[C@H](Cc1ccc(Cl)cc1)C(=O)N[C@H](Cc1cccnc1)C(=O)N[C@@H](CO)C(=O)N[C@@H](Cc1ccc(O)cc1)C(=O)N[C@H](CCCNC(N)=O)C(=O)N[C@H](CCCCN)C(=O)N[C@@H](CCCNC(=N)N)C(=O)N1CCC[C@H]1C(=O)N[C@H](C)C(N)=O [Compound 3] (Ac-[d2Nal][dPhe(4-Cl)][d3Pal]SY[dCit][dK]RP[dA]-NH2) | 10 to 100 | 
CCNC(=NCCCC[C@@H](NC(=O)[C@H](CCCCN)NC(=O)[C@H](CO)NC(=O)[C@@H](Cc1cccnc1)NC(=O)[C@@H](Cc1ccc(Cl)cc1)NC(=O)[C@@H](Cc1ccc2ccccc2c1)NC(C)=O)C(=O)N[C@@H](CC(C)C)C(=O)N[C@H](CCCCN=C(NCC)NCC)C(=O)N1CCC[C@H]1C(=O)N[C@H](C)C(N)=O)NCC [Compound 4] (Ac-[d2Nal][dPhe(4-Cl)][d3Pal]SK[d(hArg(Et2))]L[d(hArg(Et2))]P[dA]-NH2) | > 100 | 
CCNC(=NCCCC[C@@H](NC(=O)[C@H](Cc1ccc(O)cc1)NC(=O)[C@H](CO)NC(=O)[C@@H](Cc1cccnc1)NC(=O)[C@@H](Cc1ccc(Cl)cc1)NC(=O)[C@@H](Cc1ccc2ccccc2c1)NC(C)=O)C(=O)N[C@H](CCCCN)C(=O)N[C@H](CCCCN=C(NCC)NCC)C(=O)N1CCC[C@H]1C(=O)N[C@H](C)C(N)=O)NCC [Compound 5] (Ac-[d2Nal][dPhe(4-Cl)][d3Pal]SY[d(hArg(Et2))][dK][d(hArg(Et2))]P[dA]-NH2) | > 100 | 
CCNC(=NCCCC[C@@H](NC(=O)[C@@H](CCCCNC(=O)CCC(=O)O[C@@H](C(=O)O[C@H]1C[C@@]2(O)[C@@H](OC(=O)c3ccccc3)[C@@H]3[C@]4(OC(C)=O)CO[C@@H]4C[C@H](O)[C@@]3(C)C(=O)[C@H](OC(C)=O)C(=C1C)C2(C)C)[C@@H](NC(=O)c1ccccc1)c1ccccc1)NC(=O)[C@H](CO)NC(=O)[C@@H](Cc1cccnc1)NC(=O)[C@@H](Cc1ccc(Cl)cc1)NC(=O)[C@@H](Cc1ccc2ccccc2c1)NC(C)=O)C(=O)N[C@@H](CC(C)C)C(=O)N[C@H](CCCCN=C(NCC)NCC)C(=O)N1CCC[C@H]1C(=O)N[C@H](C)C(N)=O)NCC [Compound 7] (Ac-[d2Nal][dPhe(4-Cl)][d3Pal]S[dK](Paclitaxel(2'-O-succinyl))[d(hArg(Et2))]L[d(hArg(Et2))]P[dA]-NH2) | > 100 | 
CCNC(=NCCCC[C@H](NC(=O)[C@H](CC(C)C)NC(=O)[C@@H](CCCCN)NC(=O)[C@H](Cc1ccc(O)cc1)NC(=O)[C@H](CO)NC(=O)[C@@H](Cc1cccnc1)NC(=O)[C@@H](Cc1ccc(Cl)cc1)NC(=O)[C@@H](Cc1ccc2ccccc2c1)NC(C)=O)C(=O)N1CCC[C@H]1C(=O)N[C@H](C)C(N)=O)NCC [Compound 12] (Ac-[d2Nal][dPhe(4-Cl)][d3Pal]SY[dK]L[hArg(Et2)]P[dA]-NH2) | 0.1 to 1 | 
CC(=O)N[C@H](Cc1ccc2ccccc2c1)C(=O)N[C@H](Cc1ccc(Cl)cc1)C(=O)N[C@H](Cc1cccnc1)C(=O)N[C@@H](CO)C(=O)N[C@@H](Cc1ccc(O)cc1)C(=O)N[C@H](CCCCN)C(=O)N[C@@H](CC(C)C)C(=O)N[C@H](CCCNC(=N)N)C(=O)N1CCC[C@H]1C(=O)N[C@H](C)C(N)=O [Compound 13] (Ac-[d2Nal][dPhe(4-Cl)][d3Pal]SY[dK]L[dR]P[dA]-NH2) | 10 to 100 | 
COc1cccc2c1C(=O)c1c(O)c3c(c(O)c1C2=O)C[C@@](O)(C(=O)CO)C[C@@H]3O[C@H]1C[C@H](NC(=O)OCc2ccc(NC(=O)[C@H](C)NC(=O)[C@@H](NC(=O)c3ccc(COCCOCCOCCn4nnc5c4CC[C@H]4[C@@H](CC5)[C@@H]4COC(=O)NCCCC[C@@H](NC(=O)[C@H](Cc4ccc(O)cc4)NC(=O)[C@H](CO)NC(=O)[C@@H](Cc4cccnc4)NC(=O)[C@@H](Cc4ccc(Cl)cc4)NC(=O)[C@@H](Cc4ccc5ccccc5c4)NC(C)=O)C(=O)N[C@@H](CC(C)C)C(=O)N[C@@H](CCCNC(=N)N)C(=O)N4CCC[C@H]4C(=O)N[C@H](C)C(N)=O)cc3)C(C)C)cc2)[C@H](O)[C@H](C)O1 [Compound 17] | 0.1 to 1 | 
COc1cc2cc(c1Cl)N(C)C(=O)C[C@H](OC(=O)[C@H](C)N(C)C(=O)CCSC(=O)OCc1ccc(O[Si](OCCCn3nnc4c3CC[C@@H]3[C@H](CC4)[C@H]3COC(=O)N(CCCC[C@H](NC(=O)[C@H](CC(C)C)NC(=O)[C@@H](Cc3ccc(NC(N)=O)cc3)NC(=O)[C@H](Cc3ccc(NC(=O)[C@@H]4CC(=O)NC(=O)N4)cc3)NC(=O)[C@H](CO)NC(=O)[C@@H](Cc3cccnc3)NC(=O)[C@@H](Cc3ccc(Cl)cc3)NC(=O)[C@@H](Cc3ccc4ccccc4c3)NC(C)=O)C(=O)N3CCC[C@H]3C(=O)N[C@H](C)C(N)=O)C(C)C)(C(C)C)C(C)C)cc1)[C@]1(C)O[C@H]1[C@H](C)[C@@H]1C[C@@](O)(NC(=O)O1)[C@H](OC)/C=C/C=C(\C)C2 [Compound 19] |  | 1 to 10
COc1cc2cc(c1Cl)N(C)C(=O)C[C@H](OC(=O)[C@H](C)N(C)C(=O)CCSC(=O)OC[C@H]1[C@@H]3CCc4c(nnn4CCCC[C@@H](NC(=O)[C@H](Cc4ccc(O)cc4)NC(=O)[C@H](CO)NC(=O)[C@@H](Cc4cccnc4)NC(=O)[C@@H](Cc4ccc(Cl)cc4)NC(=O)[C@@H](Cc4ccc5ccccc5c4)NC(C)=O)C(=O)N[C@@H](CC(C)C)C(=O)N[C@@H](CCCNC(=N)N)C(=O)N4CCC[C@H]4C(=O)N[C@H](C)C(N)=O)CC[C@@H]31)[C@]1(C)O[C@H]1C(C)[C@@H]1C[C@@](O)(NC(=O)O1)[C@H](OC)/C=C/C=C(\C)C2 (stereo partly drawn) [Compound 20] | 0.1 to 1 | 
CCNC(=NCCCC[C@H](NC(=O)[C@H](CC(C)C)NC(=O)[C@@H](CCCCNC(=O)CCSSCCC(=O)N(C)[C@@H](C)C(=O)O[C@H]1CC(=O)N(C)c2cc(cc(OC)c2Cl)C/C(C)=C/C=C/[C@@H](OC)[C@@]2(O)C[C@H](OC(=O)N2)[C@@H](C)[C@@H]2O[C@@]12C)NC(=O)[C@H](Cc1ccc(O)cc1)NC(=O)[C@H](CO)NC(=O)[C@@H](Cc1cccnc1)NC(=O)[C@@H](Cc1ccc(Cl)cc1)NC(=O)[C@@H](Cc1ccc2ccccc2c1)NC(C)=O)C(=O)N1CCC[C@H]1C(=O)N[C@H](C)C(N)=O)NCC [Compound 23] (Ac-[d2Nal][dPhe(4-Cl)][d3Pal]SY[dK](Propanoyl(3-SS-DM1))L[hArg(Et2)]P[dA]-NH2) |  | 0.1 to 1
